A short description of this data set: Differential scanning calorimetry (VP-DSC) of DSPC liposomes (MLVs) with drugs. It counts as physicochemical. As to conditions: for Interaction of the drug with the lipid bilayer (thermogram deviation from DSPC control): FIGS. 1A-1D, pH 3.6, DSPC/drug mixture vs DSPC control; for ΔHcal: calorimetric phase transition enthalpy; for ΔHcal / Cpmax / ΔTm½ / ΔT½: drug-to-lipid 1:5; for CU: cooperativity unit = ΔHvH/ΔHcal; for Tm: drug-to-lipid mole ratio 1:5; for Cpmax: heat capacity at phase transition peak; for ΔTm½ / ΔT½: transition peak width at half-height; for ΔHvH / ΔHv: van't Hoff's enthalpy calculated from DSC measurements; for Coop: cooperativity calculated from DSC measurements. Details: ΔHcal / ΔHvH / ΔHv: unit not given here. The source says:
Differential scanning calorimetry (DSC) is a method known in the art used to measure the amount of energy (as heat) absorbed or released by a sample as it is heated, cooled, or held at a constant temperature. As used herein, the term “DSC measurements” further includes calculations using a measured feature of the sample. An exemplary method of measuring DSC utilizes a differential scanning calorimeter. Any calorimeter is suitable as long as the temperature range of the calorimeter is appropriate for the sample measurements. An exemplary calorimeter is the VP-DSC differential scanning calorimeter available from MicroCal (Northampton, Mass., USA). Typical applications using the differential scanning calorimeter include determination of melting point temperature and/or the heat of melting, measurement of the glass transition temperature, curing and crystallization studies, and identification of phase transformations.
In the embodiment using a differential scanning calorimeter for measuring the thermodynamic properties of a lipid suspension, the heat flow into a sample is usually contained in a sample cell and measured differentially, i.e. by comparing the heat flow of the sample to the heat flow into an reference cell containing an equal volume of water or the aqueous component of the sample. The heat flow may be considered as the amount of heat (q) supplied per unit of time (t), or q/t. Typically, both cells sit inside a metal jacket with a known (calibrated) heat resistance (K). The temperature of the calorimeter is raised linearly with time (scanned), where the heating rate (β=dT/dt) of the cells are kept constant and consistent with each other. […] The temperature may be controlled manually or automatically. […] Heat flows into the two cells by conduction from a heat source such as a radiator. The heat flow into the sample cell is larger due to the additional heat capacity (Cp) of the sample during the course of the phase transition. Heat capacity refers to the heat flow divided by the heating rate or Cp=q/ΔT, where q is heat, and ΔT is temperature increase. The difference in heat flow (dq/dt) induces a temperature difference (dT) between the sample and the reference cells. This temperature difference is measured using any appropriate sensor, such as a thermocouple, and a signal is generated representative of the difference.
In this figure, in a heating scan, an endothermic event results in a positive (upward) deviation from the baseline. […] The melting temperature is seen on the heat flow plot as a peak as heat is absorbed by the sample until the phase transition is completed. As will be appreciated by those of skill in the art, the main phase transition extends over a temperature range, although this peak is typically very sharp for most vesicle-forming lipids, such as DSPC, the Tm can be reported as the onset of the transition, as the midpoint of the transition, the peak temperature, or any suitable point as long as the parameters are defined. […] It will be appreciated that the exact percent of phase transition is not important as long as it is defined. Where a ratio is used, it is desirable to use the same ratio for each sample to aid in comparison between the samples. In the studies reported herein, the Tm is reported as the maximum peak of the transition range.
The latent heat of melting, or the calorimetric phase transition enthalpy, (ΔHcal) can be determined by first determining the area (A) under the peak according to the following formula: A=(heat in calories)(temperature in Kelvin)/(time in seconds)(mass in moles).

[1] abbreviates: pH 3.6, scan 20° C./hour, maximum peak of main phase transition.

Turning to `CC(=O)O[C@H]1C(=O)[C@@]2(C)[C@H]([C@H](OC(=O)c3ccccc3)[C@]3(O)C[C@H](OC(=O)[C@H](O)[C@@H](NC(=O)c4ccccc4)c4ccccc4)C(C)=C1C3(C)C)[C@]1(OC(C)=O)CO[C@@H]1C[C@@H]2O` [paclitaxel], the “Interaction of the drug with the lipid bilayer (thermogram deviation from DSPC control)” value is listed as “significant interaction”. Where the note is “pH 3.6”, the ΔHcal is listed as 10.6, the CU came out at 26.6, the Tm was determined as 54.5 °C and the Cpmax amounted to 3.5. For the same molecule, for the setting “pH 3.6”, the ΔTm½ is 2.27 °C and the ΔHvH was 281.7. In addition, under setting [1], the Tm amounted to 54.5 °C. Besides, under “pH 7.0”, the ΔHcal is 9.94, the Coop was 75, the Tm stood at 54.07 °C and the Cpmax stood at 8.67. Moreover, where the note is “pH 7.0”, the ΔT½ came to 0.77 °C and the ΔHv is 741. For the same molecule, the Tm (pH 7.0, scan 20° C./hour) amounted to 54.07 C.

As to `COc1cccc2c1C(=O)c1c(O)c3c(c(O)c1C2=O)C[C@@](O)(C(=O)CO)C[C@@H]3O[C@H]1C[C@H](N)[C@H](O)[C@H](C)O1` [doxorubicin], the “Interaction of the drug with the lipid bilayer (thermogram deviation from DSPC control)” value was “weak interaction”. In addition, where the note is “pH 3.6”, the ΔHcal turned out to be 9.28, the CU worked out at 73.3, the Tm stood at 54.6 °C and the Cpmax is 7.4. Also, under “pH 3.6”, the ΔTm½ was 0.94 °C and the ΔHvH is on record as 680.5. The Tm under setting [1] was found to be 54.5 °C. Moreover, for the setting “pH 7.0”, the ΔHcal came to 9.66, the Coop is recorded as 149, the Tm is 54.5 °C and the Cpmax was found to be 16.3. For the same molecule, where the note is “pH 7.0”, the ΔT½ amounted to 0.4 °C and the ΔHv was 1437. The Tm (pH 7.0, scan 20° C./hour) is on record as 54.45 C.

In the case of `CC[C@@]1(O)C(=O)OCc2c1cc1n(c2=O)Cc2c-1nc1ccccc1c2CCNC(C)C` [CKD602], the “Interaction of the drug with the lipid bilayer (thermogram deviation from DSPC control)” value is recorded as “some interaction”. In addition, where the note is “pH 3.6”, the ΔHcal is listed as 11.81, the CU is 45.9, the Tm is 54.7 °C and the Cpmax turned out to be 7.5. Besides, where the note is “pH 3.6”, the ΔTm½ was determined as 1.27 °C and the ΔHvH was 542.3. For the same molecule, the Tm under setting [1] is 54.6 °C. Moreover, under “pH 7.0”, the ΔHcal is 11.2, the Coop is 117, the Tm turned out to be 54.43 °C and the Cpmax stood at 17.2. Also, for the setting “pH 7.0”, the ΔT½ came to 0.42 °C and the ΔHv is given as 1308. Under “pH 7.0, scan 20° C./hour”, the Tm stood at 54.43 C.

As for `O=C(O)c1cn(C2CC2)c2cc(N3CCNCC3)c(F)cc2c1=O` [ciprofloxacin], under “pH 3.6”, the ΔHcal worked out at 9.98, the CU is reported as 38.6, the Tm was determined as 55 °C and the Cpmax worked out at 4.5. Further, the ΔHvH (pH 3.6) is listed as 385.6. For the same molecule, the Tm under setting [1] turned out to be 54.9 °C.

Turning to `CC[C@]1(O)C[C@H]2CN(CCc3c([nH]c4ccccc34)[C@@](C(=O)OC)(c3cc4c(cc3OC)N(C=O)[C@H]3[C@@](O)(C(=O)OC)[C@H](OC(C)=O)[C@]5(CC)C=CCN6CC[C@]43[C@@H]65)C2)C1` [vincristine], the “Interaction of the drug with the lipid bilayer (thermogram deviation from DSPC control)” value is recorded as “some interaction”. Under “pH 3.6”, the ΔHcal came out at 12.77, the CU turned out to be 37.2, the Tm was found to be 54.7 °C and the Cpmax came to 7.1. For the same molecule, for the setting “pH 3.6”, the ΔTm½ turned out to be 1.42 °C and the ΔHvH is 474.9. For the same molecule, the Tm under setting [1] was found to be 54.6 °C. Where the note is “pH 7.0”, the ΔHcal was 11.65, the Coop was 43, the Tm amounted to 53.93 °C and the Cpmax was 6.81. Further, where the note is “pH 7.0”, the ΔT½ came out at 1.38 °C and the ΔHv was 496. The Tm (pH 7.0, scan 20° C./hour) is 53.93 C.

Values taken from US20050107959A1, “Screening method for evaluation of bilayer-drug interaction in liposomal compositions” (priority 2003, published 2005).
